Laboratory results published in patent EP1561465A2, “Methods of use of fluoroquinolone compounds against bacteria” (LG Life Sciences, Ltd., priority 1999, dated 2001).
In brackets after ≈: the same amount, converted by molar mass. Several values for one entry are separate records, joined by “and”; a condition that tells them apart may be missing. Identical values can stand only once. Like-named read-outs stand apart in the source and are kept apart here.

Columns and labels:
Acinetobacter spp. = test: MIC by agar dilution (NCCLS), 322 nosocomial Gram negative isolates, Athens 1998; assay type: cell-based; settings: Acinetobacter; n = 38 strains
Klebsiella pneumoniae = test: as above; assay type: cell-based; settings: Klebsiella pneumoniae; n = 56 isolates
Pseudomonas aeruginosa = test: as above; assay type: cell-based; settings: n = 57 isolates
Enterobacter spp. = test: as above; assay type: cell-based; settings: Enterobacter, n = 57 isolates; for MIC50: read-out: MIC50; for MIC90: read-out: MIC90
Proteus mirabilis = test: as above; assay type: cell-based; settings: Proteus mirabilis; n = 57 isolates
Escherichia coli = test: as above; assay type: cell-based; settings: n = 57 isolates
Salmonella spp. [1] = test: MIC by agar dilution (NCCLS M7-A4), 288 enteropathogenic isolates, gemifloxacin and 15 other antimicrobials; assay type: cell-based
Shigella spp. [2] = test: MIC by agar dilution (NCCLS M7-A4), 288 enteropathogenic isolates, eight quinolones; assay type: cell-based
Hafnia alvei [3] = test: as above; assay type: cell-based
Hafnia alvei [4] = test: MIC by agar dilution (NCCLS M7-A4), 288 enteropathogenic isolates, gemifloxacin and 15 other antimicrobials; assay type: cell-based; settings: Hafnia alvei
Shigella spp. [5] = test: as above; assay type: cell-based; settings: Shigella spp. N= 21
Protocol: [A. hydrophila (12), and A. sobria (4)], and 91 Campylobacter jejuni. […] The strains were stored in skimmed-milk at -80 °C until studied.
The plates were incubated aerobically at 35 °C for 24 h, except for Campylobacter jejuni, where a microaerophilic atmosphere was obtained by using Campy Pack (Becton Dickinson, Cockeysville, MD, USA), and incubation was for 48 h. All organisms were tested with an inoculum of ≅ 10^4 cfu/spot. MICs were defined as the lower antibiotic concentration with no visible growth.

Campylobacter jejuni [6] = test: MIC by agar dilution (NCCLS M7-A4), 5% sheep blood, microaerophilic 48 h; assay type: cell-based
Campylobacter jejuni [7] = test: MIC by agar dilution (NCCLS M7-A4), 288 enteropathogenic isolates, gemifloxacin and 15 other antimicrobials; settings: Campylobacter jejuni
Yersinia enterocolitica [8] = test: MIC by agar dilution (NCCLS M7-A4), 288 enteropathogenic isolates, eight quinolones; assay type: cell-based
Salmonella spp. [9] = test: as above; assay type: cell-based
Aeromonas spp. [10] = test: MIC by agar dilution (NCCLS M7-A4), 288 enteropathogenic isolates, gemifloxacin and 15 other antimicrobials; assay type: cell-based; settings: for MIC: Aeromonas
Aeromonas spp. [11] = test: MIC by agar dilution (NCCLS M7-A4), 288 enteropathogenic isolates, eight quinolones; assay type: cell-based
Yersinia enterocolitica [12] = test: MIC by agar dilution (NCCLS M7-A4), 288 enteropathogenic isolates, gemifloxacin and 15 other antimicrobials; assay type: cell-based; settings: Yersinia enterocolitica
[13] = 24 h, read-out: MIC (mg/L) Range

`CO/N=C(\C(=O)N[C@@H]1C(=O)N2C(C(=O)[O-])=C(C[N+]3(C)CCCC3)CS[C@H]12)c1csc(N)n1` [Cefepime] gave an MIC50 (Acinetobacter spp.) of 16 µg/mL (≈ 33.3 µM), an MIC90 (Acinetobacter spp.) of 64 µg/mL (≈ 133 µM) and an MIC50 (Klebsiella pneumoniae) of 0.06 µg/mL (≈ 0.125 µM). The MIC90 (Klebsiella pneumoniae) was 8 µg/mL (≈ 16.6 µM), the MIC50 (Pseudomonas aeruginosa) was 8 µg/mL (≈ 16.6 µM) and the MIC90 (Pseudomonas aeruginosa) was greater than 64 µg/mL. The MIC50 (Enterobacter spp.) was 0.125 µg/mL (≈ 0.26 µM), the MIC90 (Enterobacter spp.) was 16 µg/mL (≈ 33.3 µM) and the MIC50 (Proteus mirabilis) was 0.125 µg/mL (≈ 0.26 µM). For the same compound, the MIC90 (Proteus mirabilis) was 8 µg/mL (≈ 16.6 µM).

`CO[C@@]1(NC(=O)Cc2cccs2)C(=O)N2C(C(=O)O)=C(COC(N)=O)CS[C@@H]21` [Cefoxitin] was tested, and the MIC50 (Acinetobacter spp.) was greater than 64 µg/mL, the MIC90 (Acinetobacter spp.) was greater than 64 µg/mL and the MIC50 (Klebsiella pneumoniae) was 4 µg/mL (≈ 9.36 µM). The MIC90 (Klebsiella pneumoniae) was 16 µg/mL (≈ 37.4 µM), the MIC50 (Enterobacter spp.) was greater than 64 µg/mL and the MIC90 (Enterobacter spp.) was greater than 64 µg/mL. It also gave an MIC50 (Proteus mirabilis) of 4 µg/mL (≈ 9.36 µM), an MIC90 (Proteus mirabilis) of 16 µg/mL (≈ 37.4 µM) and an MIC50 (Escherichia coli; Escherichia coli) of 4 µg/mL (≈ 9.36 µM). The MIC90 (Escherichia coli; Escherichia coli) was 16 µg/mL (≈ 37.4 µM) and the “MIC Range” value (Escherichia coli) was 2 to 32 µg/mL.

With `CCn1cc(C(=O)O)c(=O)c2ccc(C)nc21` [Nalidixic acid, nalidixic acid] the MIC (Salmonella spp. [1]) was greater than 128 mg/L, the “MIC” value (Salmonella spp. [1]; S. hadar(2), isolates with MICs for ciprofloxacin ≥[…]) was greater than 128 mg/L and the MIC (Salmonella spp. [1]; Salmonella) was greater than 128 mg/L. For the same compound, the “Rates of non-susceptible microorganisms” value (Salmonella spp. [1]; Salmonella spp.) was 27%, the MIC (Salmonella spp. [1]; Salmonella, read-out: MIC (mg/L) 50%) was 4 mg/L (≈ 17.2 µM) and the MIC (Salmonella spp. [1]; Salmonella, read-out: MIC (mg/L) 90%) was greater than 128 mg/L. The Non-susceptibility rate (Shigella spp. [2]; Shigella spp.) was 0%, the “% Susceptible” value (Shigella spp. [2]; Shigella spp. (n = 21)) was 100% and the MIC50 (Shigella spp. [2]; Shigella spp. (n = 21)) was 1 µg/mL (≈ 4.31 µM). For the same compound, the MIC90 (Shigella spp. [2]; Shigella spp. (n = 21)) was 2 µg/mL (≈ 8.61 µM), the “MIC Range” value (Shigella spp. [2]; Shigella spp. (n = 21)) was 1 to 2 µg/mL and the Non-susceptibility rate (Hafnia alvei [3]; H. alvei) was 0%. The MIC50 (Hafnia alvei [3]; Hafnia alvei) was 2 µg/mL (≈ 8.61 µM), the MIC90 (Hafnia alvei [3]; Hafnia alvei) was 2 µg/mL (≈ 8.61 µM) and the “% Susceptible” value (Hafnia alvei [3]; Hafnia alvei (n = 32)) was 100%. The “MIC Range” value (Hafnia alvei [3]; Hafnia alvei (n = 32)) was 1 to 2 µg/mL, the MIC (Hafnia alvei [4]; [13]) was 1 to 2 mg/L (≈ 4.31 to 8.61 µM) and the MIC (Hafnia alvei [4]; read-out: MIC (mg/L) 50%) was 2 mg/L (≈ 8.61 µM). The MIC (Hafnia alvei [4]; read-out: MIC (mg/L) 90%) was 2 mg/L (≈ 8.61 µM), the MIC (Shigella spp. [5]; [13]) was 1 to 2 mg/L (≈ 4.31 to 8.61 µM) and the MIC (Shigella spp. [5]; read-out: MIC (mg/L) 50%) was 1 mg/L (≈ 4.31 µM). For the same compound, the MIC (Shigella spp. [5]; read-out: MIC (mg/L) 90%) was 2 mg/L (≈ 8.61 µM), the Non-susceptibility rate (Campylobacter jejuni [6]; C. jejuni) was 69.24% and the MIC50 (Campylobacter jejuni [6]; Campylobacter jejuni) was greater than 128 µg/mL. For the same compound, the MIC90 (Campylobacter jejuni [6]; Campylobacter jejuni) was greater than 128 µg/mL, the “% Susceptible” value (Campylobacter jejuni [6]; Campylobacter jejuni (n=91)) was 30.76% and the MIC (Campylobacter jejuni [7]; read-out: MIC (mg/L) 50%) was greater than 128 mg/L. It also gave an MIC (Campylobacter jejuni [7]; read-out: MIC (mg/L) 90%) greater than 128 mg/L, a Non-susceptibility rate (Yersinia enterocolitica [8]; Y. enterocolitica) of 4.5% and an MIC50 (Yersinia enterocolitica [8]; Yersinia enterocolitica) of 2 µg/mL (≈ 8.61 µM). The MIC90 (Yersinia enterocolitica [8]; Yersinia enterocolitica) was 2 µg/mL (≈ 8.61 µM), the “% Susceptible” value (Yersinia enterocolitica [8]; Yersinia enterocolitica (n = 22)) was 95.5% and the MIC (Salmonella spp. [9]) was greater than 128 µg/mL. The MIC (Salmonella spp. [9]; Salmonella) was greater than 128 µg/mL, the MIC50 (Salmonella spp. [9]; Salmonella) was 4 µg/mL (≈ 17.2 µM) and the MIC90 (Salmonella spp. [9]; Salmonella) was greater than 128 µg/mL. For the same compound, the Non-susceptibility rate (Salmonella spp. [9]; Salmonella spp.) was 27%, the “% Susceptible” value (Salmonella spp. [9]; Salmonella spp. (n = 106)) was 73% and the “Rates of non-susceptible microorganisms” value (Aeromonas spp. [10]; Aeromonas spp.) was 6%. For the same compound, the MIC (Aeromonas spp. [10]; read-out: MIC (mg/L) 50%) was 0.12 mg/L (≈ 0.517 µM), the MIC (Aeromonas spp. [10]; read-out: MIC (mg/L) 90%) was 0.25 mg/L (≈ 1.08 µM) and the MIC50 (Aeromonas spp. [11]; Aeromonas) was 0.12 µg/mL (≈ 0.517 µM). For the same compound, the MIC90 (Aeromonas spp. [11]; Aeromonas) was 0.25 µg/mL (≈ 1.08 µM), the Non-susceptibility rate (Aeromonas spp. [11]; Aeromonas spp.) was 6.25% and 6.3% and the “% Susceptible” value (Aeromonas spp. [11]; Aeromonas spp. (n = 16)) was 93.75%. The “Rates of non-susceptible microorganisms” value (Yersinia enterocolitica [12]) was 5%, the MIC (Yersinia enterocolitica [12]; read-out: MIC (mg/L) 50%) was 2 mg/L (≈ 8.61 µM) and the MIC (Yersinia enterocolitica [12]; read-out: MIC (mg/L) 90%) was 2 mg/L (≈ 8.61 µM).
